For assay [1], the target named is T1, PDGFR beta (Homo sapiens, UniProt P09619).
T1 construct: endogenous in cells; host or cells: HS27 human fibroblast cell line
Put plainly: Phospho PDGFR LICOR Cell Assay (Example B). The class given is cell-based. The settings on record: averaged IC50; PDGFR beta phosphorylation in HS27 human fibroblast cell line, PDGF-BB stimulation 10 minutes, normalized to total ERK. How it is done:
Compounds were screened for inhibition of PDGFR beta phosphorylation in the HS27 human fibroblast cell line. Cells were seeded into a 96 well tissue culture plate, then incubated overnight in a 37° C./5% CO2 incubator. The following day, cells were treated for one hour with test compound dilutions. After stimulation with PDGF-BB ligand for 10 minutes, cells were washed with PBS and fixed in 3.7% formaldehyde in PBS for 10 minutes. This was followed by washing in PBS/0.2% Triton X-100 and permeabilizing in 100% MeOH for 10 minutes. Cells were incubated in blocking buffer for 1 hour. Antibodies to phosphorylated PDGFRβ and total ERK were added to the cells and incubated for 3 hours. After washing with PBS/0.2% Triton X-100, the cells were incubated with fluorescently-labeled secondary antibodies for an additional hour. Cells were then washed with PBS and analyzed for fluorescence at both wavelengths using the Odyssey Infrared Imaging System (LI-COR Biosciences). Phosphorylated PDGFR signal was normalized to total ERK signal. A standard 4-parameter logistic model was fit to the inhibitor dose response curves, with the IC50 being defined as the concentration of inhibitor giving 50 percent of control (POC).

Assay [2] deals with T2, cFMS (Homo sapiens, UniProt P07333).
T2 construct: THP-1 cells (human acute monocytic leukemia cell line) were serum-starved for 4 hours; endogenous in cells; host or cells: THP-1 cells (human acute monocytic leukemia cell line)
T2 sequence (P07333 20-972): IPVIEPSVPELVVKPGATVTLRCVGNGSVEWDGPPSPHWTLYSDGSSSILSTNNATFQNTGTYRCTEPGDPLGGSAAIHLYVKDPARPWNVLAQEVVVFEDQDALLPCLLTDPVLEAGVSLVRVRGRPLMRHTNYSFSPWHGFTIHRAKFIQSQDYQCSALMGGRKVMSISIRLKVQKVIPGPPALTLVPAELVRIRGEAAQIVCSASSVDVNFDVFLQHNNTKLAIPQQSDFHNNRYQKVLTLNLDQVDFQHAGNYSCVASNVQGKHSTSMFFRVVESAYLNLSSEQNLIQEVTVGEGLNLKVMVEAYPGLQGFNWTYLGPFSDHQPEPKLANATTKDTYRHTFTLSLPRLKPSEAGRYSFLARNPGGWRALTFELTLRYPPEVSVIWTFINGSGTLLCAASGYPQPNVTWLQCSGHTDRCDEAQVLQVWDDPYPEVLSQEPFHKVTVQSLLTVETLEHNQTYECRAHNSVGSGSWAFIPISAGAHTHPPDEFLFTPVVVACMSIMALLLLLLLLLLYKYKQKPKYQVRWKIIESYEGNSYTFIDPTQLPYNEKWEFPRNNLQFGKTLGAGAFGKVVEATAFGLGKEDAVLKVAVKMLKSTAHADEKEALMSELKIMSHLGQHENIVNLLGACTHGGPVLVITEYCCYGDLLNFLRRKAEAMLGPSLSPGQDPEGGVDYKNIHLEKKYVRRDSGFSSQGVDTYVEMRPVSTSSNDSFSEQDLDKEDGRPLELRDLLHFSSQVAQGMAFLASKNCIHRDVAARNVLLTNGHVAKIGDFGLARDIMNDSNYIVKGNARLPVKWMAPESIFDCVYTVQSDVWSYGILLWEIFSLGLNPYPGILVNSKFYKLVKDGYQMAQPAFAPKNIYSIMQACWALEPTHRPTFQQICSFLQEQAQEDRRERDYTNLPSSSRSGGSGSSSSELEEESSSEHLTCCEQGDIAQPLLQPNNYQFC
The assay can be described thus: cFMS Cell-Based Assay (Example C). The settings on record: averaged IC50; phospho-cFMS in THP-1 cells stimulated with 250 ng/mL recombinant human MCSF; read-out: cFMS Cell ELISA IC50. On the procedure:
The ability of compounds of Formula I to inhibit cFMS activation in cells was determined by the following assay. THP-1 cells (human acute monocytic leukemia cell line) were serum-starved for 4 hours prior to treatment with compounds of Formula I for 1 hour. The concentration of compounds of Formula I was varied over a 9-point, 3-fold dilution series with 5,000 nM typically being the highest dose. Cell culture and treatment were carried out in a humidified 37° C., 5% CO2 incubator. Treated cells were stimulated with 250 ng/mL recombinant human MCSF for 1 minute to induce activation of cFMS. Cells were lysed in a manner which preserves phosphoproteins, and the lysate was analyzed by ELISA (R&D Systems, Human Phospho-M-CSF R DuoSet IC DYC3268), in which total cFMS protein in the lysate is captured and phosphotyrosine residues of cFMS are detected. A standard curve, made using purified phospho-M-CSF R protein, was used to quantify phospho-c-FMS in compound-treated wells. A standard 4-parameter logistic model was fit to the inhibitor dose response curves, with the IC50 being defined as the concentration of inhibitor giving 50 percent of control (POC).

The target in assay [3] is T3, c-KIT (Homo sapiens, UniProt P10721).
T3 construct: M-07e cells (human acute megakaryoblastic leukemia cell line) were serum-starved for 4 hours; endogenous in cells; host or cells: M-07e cells (human acute megakaryoblastic leukemia cell line)
T3 sequence (P10721 26-976): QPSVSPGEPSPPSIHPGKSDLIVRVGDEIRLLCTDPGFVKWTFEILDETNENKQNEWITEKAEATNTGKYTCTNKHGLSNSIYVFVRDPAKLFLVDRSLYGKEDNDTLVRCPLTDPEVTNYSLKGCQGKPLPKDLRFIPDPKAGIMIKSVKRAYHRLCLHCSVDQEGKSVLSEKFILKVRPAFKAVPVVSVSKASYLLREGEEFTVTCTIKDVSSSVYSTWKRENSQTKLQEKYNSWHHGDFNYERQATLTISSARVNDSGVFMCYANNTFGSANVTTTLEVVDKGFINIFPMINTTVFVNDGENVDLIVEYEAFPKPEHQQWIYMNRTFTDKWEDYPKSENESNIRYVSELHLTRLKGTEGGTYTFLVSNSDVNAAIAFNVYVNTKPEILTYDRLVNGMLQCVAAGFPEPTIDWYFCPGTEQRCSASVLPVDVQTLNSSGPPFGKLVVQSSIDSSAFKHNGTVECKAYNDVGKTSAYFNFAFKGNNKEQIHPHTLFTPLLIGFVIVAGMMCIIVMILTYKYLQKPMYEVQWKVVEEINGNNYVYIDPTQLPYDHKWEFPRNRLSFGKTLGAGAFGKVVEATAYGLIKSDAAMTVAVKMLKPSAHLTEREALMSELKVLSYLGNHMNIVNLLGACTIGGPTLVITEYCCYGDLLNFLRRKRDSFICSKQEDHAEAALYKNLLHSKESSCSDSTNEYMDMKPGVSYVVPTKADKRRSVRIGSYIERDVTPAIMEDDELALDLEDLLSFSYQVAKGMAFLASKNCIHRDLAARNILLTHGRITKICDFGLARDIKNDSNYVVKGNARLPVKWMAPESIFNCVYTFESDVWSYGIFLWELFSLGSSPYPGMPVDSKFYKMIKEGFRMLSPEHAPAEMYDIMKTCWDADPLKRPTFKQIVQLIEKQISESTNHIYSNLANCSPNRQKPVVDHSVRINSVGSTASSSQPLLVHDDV
The assay can be described thus: c-KIT Cell-Based Assay (Example D). The settings on record: averaged IC50; phospho-c-KIT in M-07e cells stimulated with 150 ng/ml recombinant human SCF; read-out: cKIT Cell ELISA IC50. On the procedure:
The ability of compounds of Formula I to inhibit c-KIT activation in cells was determined by the following assay. M-07e cells (human acute megakaryoblastic leukemia cell line) were serum-starved for 4 hours prior to treatment with compounds of Formula I for 1 hour. The concentration of compounds of Formula I was varied over a 9-point, 3-fold dilution series with 5,000 nM typically being the highest dose. Cell culture and treatment were carried out in a humidified 37° C., 5% CO2 incubator. Treated cells were stimulated with 150 ng/ml recombinant human SCF for 4 minutes to induce activation of c-KIT. Cells were lysed in a manner which preserves phosphoproteins, and the lysate was analyzed by ELISA (R&D Systems, Human Phospho-SCF R DuoSet IC DYC3527), in which total c-KIT protein in the lysate is captured and phosphotyrosine residues of c-Kit are detected. A standard curve, made using purified phospho-SCF R protein, was used to quantify phospho-c-KIT in compound-treated wells. A standard 4-parameter logistic model was fit to the inhibitor dose response curves, with the IC50 being defined as the concentration of inhibitor giving 50 percent of control (POC).

Consider 19 compounds from patent US10669269B2, “Substituted N-(1H-indazol-4-yl)imidazo[1,2-a]pyridine-3-carboxamide compounds as type III receptor tyrosine kinase inhibitors” (ARRAY BIOPHARMA INC., priority 2010, dated 2020).

Where a name gives a salt, the structure may show the parent alone.

T1 sequence (P09619 33-1106): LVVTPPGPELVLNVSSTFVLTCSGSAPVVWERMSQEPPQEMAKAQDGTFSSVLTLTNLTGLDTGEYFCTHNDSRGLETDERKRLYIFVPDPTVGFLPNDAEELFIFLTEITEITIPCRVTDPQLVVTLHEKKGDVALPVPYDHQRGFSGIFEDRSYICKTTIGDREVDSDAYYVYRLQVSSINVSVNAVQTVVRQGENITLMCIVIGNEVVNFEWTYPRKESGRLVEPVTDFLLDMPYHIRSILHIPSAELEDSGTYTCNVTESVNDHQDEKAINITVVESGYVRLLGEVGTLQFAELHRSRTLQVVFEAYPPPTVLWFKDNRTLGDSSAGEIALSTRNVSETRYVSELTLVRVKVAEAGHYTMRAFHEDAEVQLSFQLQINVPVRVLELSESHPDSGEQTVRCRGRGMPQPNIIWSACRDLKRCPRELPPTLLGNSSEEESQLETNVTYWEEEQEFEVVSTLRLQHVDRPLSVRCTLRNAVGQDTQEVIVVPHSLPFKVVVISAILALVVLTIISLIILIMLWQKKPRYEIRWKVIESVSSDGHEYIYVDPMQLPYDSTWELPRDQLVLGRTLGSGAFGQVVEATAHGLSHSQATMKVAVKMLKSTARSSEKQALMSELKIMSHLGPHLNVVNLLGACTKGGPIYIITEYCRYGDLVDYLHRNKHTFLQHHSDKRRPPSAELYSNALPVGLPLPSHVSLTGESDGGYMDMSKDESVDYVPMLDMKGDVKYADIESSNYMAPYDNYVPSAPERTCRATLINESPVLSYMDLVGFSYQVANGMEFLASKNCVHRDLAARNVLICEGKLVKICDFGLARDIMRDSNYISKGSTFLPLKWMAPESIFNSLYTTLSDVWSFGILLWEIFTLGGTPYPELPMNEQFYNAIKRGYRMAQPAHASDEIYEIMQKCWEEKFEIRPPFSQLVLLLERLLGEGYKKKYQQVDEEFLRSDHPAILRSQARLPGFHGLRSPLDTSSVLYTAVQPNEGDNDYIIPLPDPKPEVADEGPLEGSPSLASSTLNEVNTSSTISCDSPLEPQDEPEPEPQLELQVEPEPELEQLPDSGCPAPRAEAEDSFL

For the compound `CCOc1cccc(Cn2nc(C)c3c(NC(=O)c4cnc5cc(OCCN6CCN(C)CC6)ccn45)cccc32)n1` [Example 86, N-(1-((6-ethoxypyridin-2-yl)methyl)-3-methyl-1H-indazol-4-yl)-7-(2-(4-methylpiperazin-1-yl)ethoxy)imidazo[1,2-a]pyridine-3-carboxamide], the IC50 in assay [1] came to 0.117 µM; in assay [2], 0.007 µM; in assay [3] it was 0.314 µM.

Turning to `COCCOc1ccn2c(C(=O)Nc3cccc4c3cnn4CC3CCOCC3)cnc2c1` [Example 113, 7-(2-methoxyethoxy)-N-(1-((tetrahydro-2H-pyran-4-yl)methyl)-1H-indazol-4-yl)imidazo[1,2-a]pyridine-3-carboxamide], the IC50 was 0.289 µM in assay [1], 0.121 µM in assay [2] and 0.331 µM in assay [3].

Turning to `COCCOc1ccn2c(C(=O)Nc3cccc4c3c(C)nn4Cc3ccccc3)cnc2c1` [Example 80, N-(1-benzyl-3-methyl-1H-indazol-4-yl)-7-(2-methoxyethoxy)imidazo[1,2-a]pyridine-3-carboxamide], the IC50 was 0.174 µM in assay [1], 0.0082 µM in assay [2] and 5.7 µM in assay [3].

With `Cc1cccc(Cn2nc(C)c3c(NC(=O)c4cnc5ccccn45)cccc32)n1` [Example 61, N-(3-methyl-1-((6-methylpyridin-2-yl)methyl)-1H-indazol-4-yl)imidazo[1,2-a]pyridine-3-carboxamide], the IC50 in assay [1] turned out to be 0.222 µM; in assay [2] it was 0.0581 µM; in assay [3] it was 0.527 µM.

As to `CN1CCN(CCOc2ccn3c(C(=O)Nc4cccc5c4cnn5Cc4ccccc4)cnc3c2)CC1` [Example 153, N-(1-benzyl-1H-indazol-4-yl)-7-(2-(4-methylpiperazin-1-yl)ethoxy)imidazo[1,2-a]pyridine-3-carboxamide], the IC50 in assay [1] was determined as 0.005 µM; in assay [2], 0.0148 µM; in assay [3] it was 0.0095 µM.

As for `Cc1cccc(Cn2nc(C)c3c(NC(=O)c4cnc5cc(CCN6CCN(C)CC6)ccn45)cccc32)n1` [Example 78, N-(3-methyl-1-((6-methylpyridin-2-yl)methyl)-1H-indazol-4-yl)-7-(2-(4-methylpiperazin-1-yl)ethyl)imidazo[1,2-a]pyridine-3-carboxamide], the IC50 in assay [1] worked out at 3.43 µM; in assay [2] it was 0.0173 µM; in assay [3] it was 4.07 µM.

As to `COCCOc1ccn2c(C(=O)Nc3cccc4c3cnn4Cc3cccc(C(=O)OC)c3)cnc2c1` [Example 93, Methyl 3-((4-(7-(2-methoxyethoxy)imidazo[1,2-a]pyridine-3-carboxamido)-1H-indazol-1-yl)methyl)benzoate], the IC50 in assay [1] amounted to 0.006 µM; in assay [2], 0.842 µM; in assay [3], 0.0064 µM.

Regarding `Cc1ccc(Cn2nc(C)c3c(NC(=O)c4cnc5cc(OCCN6CCN(C)CC6)ccn45)cccc32)cn1` [Example 85, N-(3-methyl-1-((6-methylpyridin-3-yl)methyl)-1H-indazol-4-yl)-7-(2-(4-methylpiperazin-1-yl)ethoxy)imidazo[1,2-a]pyridine-3-carboxamide], the values for the IC50 in assay [1], in assay [2] and in assay [3] were 0.401 µM, 0.0104 µM and 0.303 µM, respectively.

Consider `COc1ccc2ncc(C(=O)Nc3cccc4c3cnn4Cc3ccccc3)n2c1` [Example 159, N-(1-benzyl-1H-indazol-4-yl)-6-methoxyimidazo[1,2-a]pyridine-3-carboxamide], for which the IC50 in assay [1] amounted to 0.0643 µM; in assay [2], 0.0266 µM; in assay [3] it was 0.0098 µM.

Regarding `Cc1cccc(Cn2nc(C)c3c(NC(=O)c4cnc5cc(OCCN(C)C)ccn45)cccc32)n1` [Example 60, 7-(2-(dimethylamino)ethoxy)-N-(3-methyl-1-((6-methylpyridin-2-yl)methyl)-1H-indazol-4-yl)imidazo[1,2-a]pyridine-3-carboxamide], the IC50 in assay [1] is 5 µM; in assay [2] it was 0.0356 µM; in assay [3], 4.56 µM.

On to `CC(c1ccn2c(C(=O)Nc3cccc4c3cnn4Cc3ccccc3)cnc2c1)N1CCOCC1` (stereo not shown) [Example 148, N-(1-benzyl-1H-indazol-4-yl)-7-(1-morpholinoethyl)imidazo[1,2-a]pyridine-3-carboxamide], for which the IC50 in assay [1] was found to be 0.994 µM; in assay [2], 0.0931 µM; in assay [3], 0.189 µM.

With `Cc1nn(Cc2ccn(C(C)C)n2)c2cccc(NC(=O)c3cnc4cc(OCCN5CCN(C(C)C)CC5)ccn34)c12` [Example 49, N-(1-((1-isopropyl-1H-pyrazol-3-yl)methyl)-3-methyl-1H-indazol-4-yl)-7-(2-(4-isopropylpiperazin-1-yl)ethoxy)imidazo[1,2-a]pyridine-3-carboxamide], the IC50 in assay [1] was 0.0097 µM; in assay [2], 0.0118 µM; in assay [3], 0.0535 µM.

Turning to `Cc1ccc(-c2ccn3c(C(=O)Nc4cccc5c4c(C)nn5Cc4cccc(C)n4)cnc3c2)cn1` [Example 50, N-(3-methyl-1-((6-methylpyridin-2-yl)methyl)-1H-indazol-4-yl)-7-(6-methylpyridin-3-yl)imidazo[1,2-a]pyridine-3-carboxamide di-hydrochloride], the IC50 in assay [2] is 0.0058 µM.

On to `Cc1cccc(Cn2nc(C)c3c(NC(=O)c4cnc5cc(-c6c(C)n[nH]c6C)ccn45)cccc32)n1` [Example 69, 7-(3,5-dimethyl-1H-pyrazol-4-yl)-N-(3-methyl-1-((6-methylpyridin-2-yl)methyl)-1H-indazol-4-yl)imidazo[1,2-a]pyridine-3-carboxamide], for which the IC50 in assay [2] amounted to 0.0082 µM.

Regarding `COCCOc1ccn2c(C(=O)Nc3cccc4c3cnn4-c3ccccc3)cnc2c1` [Example 133, 7-(2-Methoxyethoxy)-N-(1-phenyl-1H-indazol-4-yl)imidazo[1,2-a]pyridine-3-carboxamide], the IC50 in assay [1] was 1 µM; in assay [2] it was 0.0991 µM.

Consider `COCCOc1ccn2c(C(=O)Nc3cccc4c3cnn4Cc3cccc(O)c3)cnc2c1` [Example 130, N-(1-(3-hydroxybenzyl)-1H-indazol-4-yl)-7-(2-methoxyethoxy)imidazo[1,2-a]pyridine-3-carboxamide], for which the IC50 came out at 0.114 µM in assay [1] and 0.442 µM in assay [2].

Consider `O=C(Nc1cccc2c1cnn2CC1CCCCO1)c1cnc2ccccn12` (stereo not shown) [Example 128, N-(1-((tetrahydro-2H-pyran-2-yl)methyl)-1H-indazol-4-yl)imidazo[1,2-a]pyridine-3-carboxamide], for which, in assay [2], the IC50 was 0.131 µM.

For the compound `COCCNCCc1ccn2c(C(=O)Nc3cccc4c3c(C)nn4Cc3cccc(C)n3)cnc2c1` [Example 74, 7-(2-(2-methoxyethylamino)ethyl)-N-(3-methyl-1-((6-methylpyridin-2-yl)methyl)-1H-indazol-4-yl)imidazo[1,2-a]pyridine-3-carboxamide], in assay [2], the IC50 is 0.0795 µM.

Take `Cc1cccc(Cn2nc(C)c3c(NC(=O)c4cnc5cc(OCCN6CCCC6)ccn45)cccc32)n1` [Example 55, N-(3-methyl-1-((6-methylpyridin-2-yl)methyl)-1H-indazol-4-yl)-7-(2-(pyrrolidin-1-yl)ethoxy)imidazo[1,2-a]pyridine-3-carboxamide dihydrochloride]: the values for the half-inhibitory concentration (IC50) in assay [1] and in assay [2] were 0.305 µM and 0.0401 µM, respectively.
